According to patent publication US12478608B2, “Use of slow-releasing hydrogen sulfide organic donor ADT-OH in the preparation of drugs for treating nervous system diseases” (SOOCHOW UNIVERSITY, priority 2021, dated 2025):

How the values were obtained:
Assay type in all cases: cell-based, mouse
neural precursor cells [1] = assay: Differentiation of neural precursor cells into astrocytes (GFAP immunofluorescence); conditions: ADT-OH 80 μmol/L; 8 days in differentiation medium
Excerpt: (§1) • (1) Adult ICR mice (male:female 2:1) were allowed to mate randomly. At 8:00 every night, the male and female mice were co-caged. […] On day 14.5 of pregnancy of the mice, neural precursor cells were extracted.
(§2) C57BL/6J mice at day 14.5 of pregnancy were anesthetized with 4% chloral hydrate by intraperitoneal injection. The abdominal cavity of the pregnant mice was opened using sterile surgical scissors and surgical forceps, the uterus of the pregnant mice was opened and the fetal brain was taken out. […]
(§3) The cultured cells were fixed with 4% PFA for 15 min, and washed three times with 0.01 M PBS, and then immunofluorescence staining was performed with Tuj1, GFAP, MBP, and caspase3 antibodies. The plate was blocked with a DAPI-containing blocking agent (Vector Labs, H-1400), observed and photographed under a Zeiss fluorescence microscope. Tuj1-positive neurons GFAP-positive astrocytes, MBP-positive oligodendrocytes and DAPI-positive cells were counted using ImageJ and adobe photoshop, respectively. The rate of positive cells to all DAPI-positive cells was calculated. • (2) The cells were fixed with 4% PFA after 5 days of differentiation in the differentiation medium, and immunofluorescently stained with the neuron-specific antibody Tuj1. […]
The rate of GFAP positive cells to DAPI-positive cells was statistically calculated.

neural precursor cells [2] = assay: Differentiation of neural precursor cells into oligodendrocytes (MBP immunofluorescence); conditions: ADT-OH 80 μmol/L; 5 days in differentiation medium
Excerpt: as §1, §2, §3
The rate of MBP positive cells to all DAPI-positive cells was statistically calculated.

neural precursor cells [3] = assay: Apoptosis of neural precursor cells (caspase3 staining); conditions: ADT-OH 80 μmol/L
Procedure: The isolated primary neural precursor cells were cultured for 3-4 days, and the neurospheres were blown into individual cells. and inoculated in a 24-well cell culture plate lined with adhesive glass discs. The cells were grown in neural precursor cell culture medium supplemented with ADT-OH (80 μmol/L) or control solute DMSO for 3 days, respectively, and then stained with apoptosis-specific antibody caspase3. Images were collected under a fluorescence microscope, and • the rate of caspase3 positive cells to all DAPI-positive cells were statistically calculated.

neural precursor cells [4] = assay: Differentiation of neural precursor cells into neurons (Tuj1 immunofluorescence) and axonal length; conditions: ADT-OH 80 μmol/L; 5 days in differentiation medium
Excerpt: as §1
C57BL/6J mice at day 14.5 of pregnancy were anesthetized with 4% chloral hydrate by intraperitoneal injection. The abdominal cavity of the pregnant mice was opened using sterile surgical scissors and surgical forceps, the uterus of the pregnant mice was opened and the fetal brain was taken out. The fetal brain tissue in the subventricular zone was isolated under a stereomicroscope, digested with 0.05% trypsin in a water bath at 37° C. for 10 min, and then terminated with a neural precursor cell culture medium (containing DMEM-F12 medium 39.2 ml, 1×B27 800 ul, 0.2 mg/ml bEGF 4 ul, and 0.2 mg/ml FGF 8 ul), and then gently blown into individual cells. The cells were centrifuged at 700 rcf for 5 min and the supernatant was discarded. The neural precursor cell culture medium was added, and the cells were inoculated and cultured in a 24-well cell culture plate. […]
The cultured cells were fixed with 4% PFA for 15 min, and washed three times with 0.01 M PBS, and then immunofluorescence staining was performed with Tuj1, GFAP, MBP, and caspase3 antibodies. The plate was blocked with a DAPI-containing blocking agent (Vector Labs, H-1400), observed and photographed under a Zeiss fluorescence microscope. Tuj1-positive neurons GFAP-positive astrocytes, MBP-positive oligodendrocytes and DAPI-positive cells were counted using ImageJ and adobe photoshop, respectively. The rate of positive cells to all DAPI-positive cells was calculated. • (2) The cells were fixed with 4% PFA after 5 days of differentiation in the differentiation medium, and immunofluorescently stained with the neuron-specific antibody Tuj1. After staining, images were collected under a fluorescence microscope, and the rates of neurons to all DAPI-positive cells in each group were statistically calculated.

## Oc1ccc(-c2cc(=S)ss2)cc1 [ADT-OH, 5-(p-hydroxyphenyl)-1,2-dithione-3-thione]
Neural precursor cells [1]
  differentiation into astrocytes (GFAP positive cells to DAPI-positive cells) compared with the DMSO control group: fewer cells in the ADT-OH group are differentiated into astrocytes
  rate of differentiation into astrocytes, reduction compared with the DMSO control group: 69.2%
Neural precursor cells [2]
  differentiation into oligodendrocytes (MBP positive cells to all DAPI-positive cells) compared with the DMSO control group: more cells are differentiated into oligodendrocytes
  rate of differentiation into oligodendrocytes, increase compared with the DMSO control group: 87.5%
Neural precursor cells [3]; 3 days
  apoptosis, reduction compared with the DMSO control group: 44.8%
Neural precursor cells [3]; 3 days in neural precursor cell culture medium
  apoptotic cells (caspase3 positive cells to all DAPI-positive cells) compared with the DMSO control group: fewer cells are apoptotic
Neural precursor cells [4]
  axons of neurons (axonal length) compared with the DMSO control group: longer axons
  differentiation into neurons (Tuj1-positive cells to all DAPI-positive cells) compared with the DMSO control group: more cells are differentiated into neurons
  rate of differentiation into neurons, increase compared with the DMSO control group: 57.69%
